How the values were obtained:
[1] = Metabolite analysis in vivo; design: species or system mouse; conditions: 4 h postinjection
[2] = log D7.4 shake flask method, n-octanol/PBS; format: physicochemical; conditions: n-octanol/PBS pH 7.4, shake flask; mean ± SD, three experiments
Protocol: For assessing the lipophilicity of the ^64Cu-labeled PD-L1 radioligands, distribution coefficients (log D7.4 values) were determined using the shake flask method between n-octanol and PBS buffer (pH 7.4).
n-Octanol/water distribution coefficients were determined by the shake-flask method. The experiments for each radioligand was performed in triplicate. 30 μL of the reaction mixture was added to a 1.5 mL Eppendorf tube, which contained 570 μL of PBS (pH 7.4) and 600 μL n-octanol. After shaking at room temperature at 1500 rpm for 5 min, the mixture was centrifugated. An aliquot for each phase was carefully withdrawn, and the count rates were measured using a γ-counter (ISOMED2160 sodium iodide crystal detector). The mean values were calculated, corrected for the background activity, and the log D7.4 value was calculated with following formula [drawing 1]

Row | SMILES | stability in circulation (metabolite analysis) [1] | log D7.4 [2]
1 | Cc1c(COc2cc(OCc3cncc(S(C)(=O)=O)c3)c(CN[C@@H](CS(=O)(=O)O)C(=O)NCCS(=O)(=O)O)cc2Cl)cccc1-c1cccc(OCc2cn(CCCN3CCN(C(=O)[C@H](CS(=O)(=O)O)NC(=O)CC[C@H](C(=O)O)N4CCN(CC(=O)O)CCN(CC(=O)O)CC4)CC3)nn2)c1C.[64Cu+2] [[^64Cu]Cu-3] | overall stability of the compound in circulation | –
2 | Cc1c(COc2cc(OCc3cncc(S(C)(=O)=O)c3)c(CN[C@@H](CS(=O)(=O)O)C(=O)NCCP(=O)(O)O)cc2Cl)cccc1-c1cccc(OCc2cn(CCCN3CCN(C(=O)CC[C@H](C(=O)O)N4CCN(CC(=O)O)CCN(CC(=O)O)CC4)CC3)nn2)c1C.[64Cu+2] [[^64Cu]Cu-4] | – | –3.07 ± 0.02
3 | Cc1c(COc2cc(OCc3cncc(S(C)(=O)=O)c3)c(CN[C@@H](CS(=O)(=O)O)C(=O)NCCP(=O)(O)O)cc2Cl)cccc1-c1cccc(OCc2cn(CCCN3CCN(C(=O)[C@H](CP(=O)(O)O)NC(=O)CC[C@H](C(=O)O)N4CCN(CC(=O)O)CCN(CC(=O)O)CC4)CC3)nn2)c1C.[64Cu+2] [[^64Cu]Cu-6] | – | –4.28 ± 0.08
